The results in this text go back to ChEMBL document CHEMBL1697731, “Cheminformatics analysis of assertions mined from literature that describe drug-induced liver injury in different species” (Chem Res Toxicol, 2010).

In data set [1] the test system is Hepatotoxicity. Nature of the data set: Literature-mined compound from Fourches et al multi-species drug-induced liver injury (DILI) dataset, effect in humans. The note with it: human.
In data set [2] the test system is Hepatotoxicity. The data set is described as follows: Literature-mined compound from Fourches et al multi-species drug-induced liver injury (DILI) dataset, effect in rodents. The conditions noted are these: rodentia.
For data set [3], the system named is Hepatotoxicity. Nature of the data set: Literature-mined compound from Fourches et al multi-species drug-induced liver injury (DILI) dataset, effect in non-rodents.

As to `Cc1[nH]c(/C=C2\C(=O)Nc3ccccc32)c(C)c1CCC(=O)O` [ORANTINIB], the Hepatotoxicity entry in the data set with Hepatotoxicity [1] was “drug-induced liver injury reported”; in the data set on Hepatotoxicity [2] it was “no drug-induced liver injury reported”; in the data set on Hepatotoxicity [3], “no drug-induced liver injury reported”.
Regarding `O=C(NC(Cc1cc(=O)[nH]c2ccccc12)C(=O)O)c1ccc(Cl)cc1` (stereo unspecified) [REBAMIPIDE], the Hepatotoxicity result with Hepatotoxicity [1] is reported as “no drug-induced liver injury reported”; with Hepatotoxicity [2] it was “drug-induced liver injury reported”; in the data set on Hepatotoxicity [3], “no drug-induced liver injury reported”.
With `C/C(=C\c1csc(C)n1)[C@@H]1C[C@@H]2O[C@]2(C)CCC[C@H](C)[C@H](O)[C@@H](C)C(=O)C(C)(C)[C@@H](O)CC(=O)N1` [IXABEPILONE], the figures for the Hepatotoxicity entry in the data set on Hepatotoxicity [1], in the data set with Hepatotoxicity [2] and in the data set on Hepatotoxicity [3] were “drug-induced liver injury reported”, “no drug-induced liver injury reported” and “no drug-induced liver injury reported”, respectively.
`C[C@@H](O)[C@H](NC(=O)N(C)c1ncnc2c1ncn2[C@@H]1O[C@H](COP(=O)(O)O)[C@@H](O)[C@H]1O)C(=O)O`: the Hepatotoxicity result with Hepatotoxicity [1] is reported as “no drug-induced liver injury reported”; with Hepatotoxicity [2], “drug-induced liver injury reported”; in the data set on Hepatotoxicity [3] it was “no drug-induced liver injury reported”.
With `CCCC(C)(COC(N)=O)COC(N)=O` [MEPROBAMATE], the Hepatotoxicity result in the data set on Hepatotoxicity [1] was “no drug-induced liver injury reported”; in the data set with Hepatotoxicity [2] it was “drug-induced liver injury reported”; in the data set on Hepatotoxicity [3], “no drug-induced liver injury reported”.
For the molecule `Cc1cccc(C)c1OCC(=O)N[C@@H](Cc1ccccc1)[C@@H](O)C[C@H](Cc1ccccc1)NC(=O)[C@H](C(C)C)N1CCCNC1=O` [LOPINAVIR], the Hepatotoxicity entry with Hepatotoxicity [1] is “drug-induced liver injury reported”; with Hepatotoxicity [2], “no drug-induced liver injury reported”; in the data set with Hepatotoxicity [3], “no drug-induced liver injury reported”.
For `Cc1cn([C@@H]2O[C@H](CO)[C@@H](O)[C@@H]2F)c(=O)[nH]c1=O` [5-METHYL-2'-FLUOROARAURACIL], the figures for the Hepatotoxicity result in the data set with Hepatotoxicity [1], in the data set with Hepatotoxicity [2] and in the data set on Hepatotoxicity [3] were “drug-induced liver injury reported”, “no drug-induced liver injury reported” and “no drug-induced liver injury reported”, respectively.
On to `CCc1cc(C(N)=S)ccn1` [ETHIONAMIDE], for which the Hepatotoxicity result is “drug-induced liver injury reported” in the data set with Hepatotoxicity [1] (Liver), “drug-induced liver injury reported” in the data set with Hepatotoxicity [2] (Liver) and “no drug-induced liver injury reported” with Hepatotoxicity [3] (Liver).
In the case of `CN1CCN(CCCN2c3ccccc3Sc3ccccc32)CC1` [PERAZINE], the results for the Hepatotoxicity entry in the data set on Hepatotoxicity [1], in the data set on Hepatotoxicity [2] and with Hepatotoxicity [3] were “drug-induced liver injury reported”, “no drug-induced liver injury reported” and “no drug-induced liver injury reported”, respectively.
As to `N[C@H]1C(O)O[C@H](CO)[C@@H](O)[C@@H]1O` (stereo partly specified) [GLUCOSAMINE], the Hepatotoxicity entry was “no drug-induced liver injury reported” with Hepatotoxicity [1], “drug-induced liver injury reported” with Hepatotoxicity [2] and “no drug-induced liver injury reported” in the data set with Hepatotoxicity [3].
With `CSc1ccc2c(c1)N(CCC1CCCCN1C)c1ccccc1S2` (stereo unspecified) [THIORIDAZINE], the Hepatotoxicity result is listed as “drug-induced liver injury reported” in the data set with Hepatotoxicity [1], “drug-induced liver injury reported” in the data set with Hepatotoxicity [2] and “no drug-induced liver injury reported” in the data set with Hepatotoxicity [3].
As for `CCCc1cc(C(N)=S)ccn1` [PROTIONAMIDE], the values for the Hepatotoxicity result in the data set on Hepatotoxicity [1], with Hepatotoxicity [2] and in the data set on Hepatotoxicity [3] were “drug-induced liver injury reported”, “no drug-induced liver injury reported” and “no drug-induced liver injury reported”, respectively.
`CC1=C(/C=C/C(C)=C\C=C\C(C)=C\C(=O)O)C(C)(C)CCC1` [ALITRETINOIN]: the Hepatotoxicity entry in the data set with Hepatotoxicity [1] was “drug-induced liver injury reported”; with Hepatotoxicity [2], “drug-induced liver injury reported”; in the data set with Hepatotoxicity [3], “no drug-induced liver injury reported”.
In the case of `CCn1cc(C(=O)O)c(=O)c2cnc(N3CCNCC3)nc21` [PIPEMIDIC ACID], the Hepatotoxicity result is “drug-induced liver injury reported” in the data set with Hepatotoxicity [1], “no drug-induced liver injury reported” in the data set on Hepatotoxicity [2] and “no drug-induced liver injury reported” in the data set on Hepatotoxicity [3].
Consider `CN(C)CCOc1ccc(/C(=C(/CCCl)c2ccccc2)c2ccccc2)cc1` [TOREMIFENE], for which the Hepatotoxicity result with Hepatotoxicity [1] is “drug-induced liver injury reported”; with Hepatotoxicity [2], “drug-induced liver injury reported”; in the data set on Hepatotoxicity [3], “no drug-induced liver injury reported”.
On to `OCC(O)CO` [GLYCERIN], for which the Hepatotoxicity result in the data set on Hepatotoxicity [1], in the data set on Hepatotoxicity [2] and in the data set with Hepatotoxicity [3] was “drug-induced liver injury reported” each time.
For the molecule `O=C1CN=C(c2ccccc2)c2cc([N+](=O)[O-])ccc2N1` [NITRAZEPAM], the Hepatotoxicity result in the data set with Hepatotoxicity [1] is “no drug-induced liver injury reported”; in the data set on Hepatotoxicity [2] it was “drug-induced liver injury reported”; with Hepatotoxicity [3], “no drug-induced liver injury reported”.
For the molecule `Sc1ncnc2nc[nH]c12` [MERCAPTOPURINE ANHYDROUS], the Hepatotoxicity result is reported as “drug-induced liver injury reported” in the data set on Hepatotoxicity [1] (Liver), “drug-induced liver injury reported” in the data set on Hepatotoxicity [2] (Liver) and “no drug-induced liver injury reported” with Hepatotoxicity [3] (Liver).
Take `C[C@@H]1O[C@@H](O[C@@H]2C=C3CC[C@@H]4[C@H](CC[C@]5(C)[C@@H](c6ccc(=O)oc6)CC[C@]45O)[C@@]3(C)CC2)[C@H](O)[C@H](O)[C@H]1O[C@@H]1O[C@H](CO)[C@@H](O)[C@H](O)[C@H]1O`: the Hepatotoxicity entry with Hepatotoxicity [1] is given as “no drug-induced liver injury reported”; with Hepatotoxicity [2] it was “drug-induced liver injury reported”; in the data set on Hepatotoxicity [3], “no drug-induced liver injury reported”.
Consider `NCCCC[C@H](N[C@@H](CCc1ccccc1)C(=O)O)C(=O)N1CCC[C@H]1C(=O)O` [LISINOPRIL ANHYDROUS], for which the Hepatotoxicity result with Hepatotoxicity [1] is “drug-induced liver injury reported”; in the data set with Hepatotoxicity [2] it was “drug-induced liver injury reported”; in the data set on Hepatotoxicity [3], “no drug-induced liver injury reported”.
Regarding `CC(=O)O[C@@]12CO[C@@H]1C[C@H](O)[C@@]1(C)C(=O)[C@H](O)C3=C(C)[C@@H](OC(=O)[C@H](O)[C@@H](NC(=O)OC(C)(C)C)c4ccccc4)C[C@@](O)([C@@H](OC(=O)c4ccccc4)[C@H]21)C3(C)C.O.O.O` [DOCETAXEL], the values for the Hepatotoxicity result in the data set with Hepatotoxicity [1], in the data set on Hepatotoxicity [2] and in the data set on Hepatotoxicity [3] were “drug-induced liver injury reported”, “drug-induced liver injury reported” and “no drug-induced liver injury reported”, respectively.
With `COC(F)(F)C(Cl)Cl` [METHOXYFLURANE], the values for the Hepatotoxicity entry in the data set on Hepatotoxicity [1], in the data set on Hepatotoxicity [2] and in the data set on Hepatotoxicity [3] were “drug-induced liver injury reported”, “drug-induced liver injury reported” and “no drug-induced liver injury reported”, respectively.
Regarding `Cc1oc(-c2ccccc2)nc1CCOc1ccc(CC2C(=O)NOC2=O)cc1` (stereo unspecified) [REGLITAZAR], the Hepatotoxicity entry is reported as “no drug-induced liver injury reported” with Hepatotoxicity [1], “drug-induced liver injury reported” with Hepatotoxicity [2] and “no drug-induced liver injury reported” in the data set on Hepatotoxicity [3].
As to `CCC1(c2ccccc2)C(=O)NC(=O)NC1=O` [PHENOBARBITAL], the Hepatotoxicity result with Hepatotoxicity [1], in the data set on Hepatotoxicity [2] and in the data set with Hepatotoxicity [3] was “drug-induced liver injury reported” each time.
Regarding `CN1CCN(CCCN2c3ccccc3Sc3ccc(Cl)cc32)CC1` [PROCHLORPERAZINE], the Hepatotoxicity result with Hepatotoxicity [1] is on record as “drug-induced liver injury reported”; in the data set on Hepatotoxicity [2] it was “no drug-induced liver injury reported”; in the data set on Hepatotoxicity [3] it was “no drug-induced liver injury reported”.
Regarding `O=c1[nH]cc(F)c(=O)[nH]1` [FLUOROURACIL], the Hepatotoxicity result in the data set with Hepatotoxicity [1], with Hepatotoxicity [2] and in the data set with Hepatotoxicity [3] was “drug-induced liver injury reported” in each case.
`COP(=O)(OC)C(O)C(Cl)(Cl)Cl` (stereo unspecified) [TRICHLORFON]: the Hepatotoxicity result with Hepatotoxicity [1] is reported as “no drug-induced liver injury reported”; in the data set on Hepatotoxicity [2] it was “drug-induced liver injury reported”; with Hepatotoxicity [3], “no drug-induced liver injury reported”.
`CC(=O)Oc1cc(C(C)C)c(OCCN(C)C)cc1C` [MOXISYLYTE]: the Hepatotoxicity entry is on record as “drug-induced liver injury reported” in the data set with Hepatotoxicity [1], “no drug-induced liver injury reported” with Hepatotoxicity [2] and “no drug-induced liver injury reported” with Hepatotoxicity [3].
For `CNC(=C[N+](=O)[O-])NCCSCc1ccc(CN(C)C)o1` [RANITIDINE], the Hepatotoxicity result with Hepatotoxicity [1], in the data set with Hepatotoxicity [2] and in the data set on Hepatotoxicity [3] was “drug-induced liver injury reported” throughout.
For `COC(=O)[C@@H]1[C@H]2C[C@H]3c4[nH]c5ccccc5c4CCN3C[C@@H]2CC[C@@H]1O` [YOHIMBINE], the values for the Hepatotoxicity entry in the data set on Hepatotoxicity [1], with Hepatotoxicity [2] and in the data set with Hepatotoxicity [3] were “no drug-induced liver injury reported”, “drug-induced liver injury reported” and “no drug-induced liver injury reported”, respectively.
`NNC(=O)c1ccncc1` [ISONIAZID]: the Hepatotoxicity entry in the data set on Hepatotoxicity [1], with Hepatotoxicity [2] and in the data set with Hepatotoxicity [3] was “drug-induced liver injury reported” throughout.
With `Nc1nc2c(ncn2COCCO)c(=O)[nH]1` [ACYCLOVIR], the Hepatotoxicity result was “drug-induced liver injury reported” with Hepatotoxicity [1], “drug-induced liver injury reported” in the data set on Hepatotoxicity [2] and “no drug-induced liver injury reported” with Hepatotoxicity [3].
